In series [1] the test system is Echinacea purpurea petiole explants. Put plainly: Regeneration of Echinacea purpurea petiole explants on induction medium (BAP, TDZ, IAA). Type of series: cell-based. The conditions noted are these: for Number of regenerants/petiole: after 33 days of culture. The method, then: The design of all experiments was a complete randomized block and treatments consisted of five replications. All the experiments were repeated at least twice and the data were analyzed using SAS Version 6.12 (SAS Inc., 1995). Significant differences between means were assessed by a Student-Neuman-Keulls means separation test at P≦0.05.
Germinating seedlings were cultured onto MS medium (Murashige & Skoog, 1962) with B5 vitamins (Gamborg et al 1968), 30 g·L^−1 sucrose and 3 g·L^−1 gelrite in Magenta boxes. Petiole explants, 2 cm in length were excised from 4 week old sterile Echinacea purpurea plants and cultured onto induction medium comprising MS media supplemented with thidiazuron (TDZ) (0.5, 1, 5 and 10 μmol·L^−1) or BAP (1, 2.5, 5, 7.5, 10, 12.5 and 15 μmol·L^−1). TDZ was added to the media at concentrations of 0.5 and 1.0 μmmol·L^−1 in combination with indole acetic acid (IAA, an auxin) at concentrations of 5 and 10 μmol·L^−1. Explants cultured on media containing TDZ and IAA were subcultured onto MS basal media after 23 days while those cultured on media containing higher concentrations of TDZ were subcultured onto MS basal media after 4 and 8 days. All treatments consisted of 10 plates per treatment and 6 explants per plate. Treatments were incubated in a growth cabinet with a 16 hour photoperiod under cool white light at 40–60 μmol·m^−2·s^−1. Regeneration was quantified after 25 and 33 days for all petiole cultures and roots after 33 and 42 days of culture. The resulting regenerants were excised from petioles and subcultured onto MS basal media in test tubes for germination after 32 days of culture.

Series [2] has as its system St. John's wort plantlets. As to the kind of experiment: Lithium accumulation and growth of St. John's wort plantlets on lithium-supplemented liquid basal medium. Type of series: in vivo, Hypericum perforatum. On the procedure: St. John's wort seedlings were obtained from sterilized seeds germinated in a controlled environment. St. John's wort seeds were sterilized by immersing in a 70% ethanol solution for 5 s, followed by an immersion in a 30% solution of 5.4% sodium hypochlorite (Lilo Products, Hamilton, Ontario) in water with one drop of Tween 20 per 500 mL for 20 min, and a three times rinse in sterile distilled water. Sterile seeds were germinated and maintained on water agar (8 g·L^−1) for 16 days in darkness in a growth cabinet at 24° C. Individual seedlings were cultured in Magenta boxes on a medium containing MS medium (Murashige and Skoog, 1962), B5 vitamins (Gamborg et al 1968), 30 g·L^−1 sucrose and 3 g·L^−1 gellan gum (Gelrite, Schweitzerhall Inc., South Plainfield, N.J., USA). Seedling cultures were incubated in a growth cabinet with a 16 hour photoperiod under cool white light at 40–60 μmol·m^−2·s^−1. After 30 days, seedlings were excised from the Magenta boxes and subcultured into 125 mL flasks containing 25 mL of a basal medium containing MS medium (Murashige and Skoog, 1962), B5 vitamins (Gamborg et al 1968) and 30 g·L^−1 sucrose. […]
In a second series of experiments, the lithium accumulation of regenerated St. John's wort shoots was determined. […]
Samples were harvested from the cultures analysed for lithium with the same protocol as described above.

Series [3] concerns livestock growth. The conditions noted are these: animal feeds supplemented with 3000 ppm inorganic zinc; cited from earlier work.
Series [4] deals with Echinacea plantlets. As to the kind of experiment: Zinc uptake and growth of Echinacea plantlets on zinc-supplemented liquid basal medium. It is filed as in vivo, Echinacea purpurea. The method, then:
Germinating seedlings were cultured onto MS medium (Murashige & Skoog, 1962) with B5 vitamins (Gamborg et al 1968), 30 g·L^−1 sucrose and 3 g·L^−1 gelrite in Magenta boxes and incubated in a controlled environment chamber for 30 days with a 16 hour photoperiod under cool white light at 40–60 μmol·m^−2·s^−1. Mature seedlings were subcultured into 125 mL flasks containing 25 mL of basal medium supplemented with zinc at 0, 50, 100, 150 or 200 mg·L^−1 and incubated in the same chamber for 30 days (liquid baslal medium, Table 1).
In experiments designed to determine the zinc uptake in micropropagated Echinacea plantlets, petiole explants, 2 cm in length were excised from the 4 week old sterile Echinacea plants and subcultured onto induction medium comprising MS media supplemented with thidiazuron (TDZ) (0.5, 1, 5 and 10 μmol·L^−1) or BAP (1, 2.5, 5, 7.5, 10, 12.5 and 15 μmol·L^−1) alone or in combination with indoleacetic acid (IAA) at concentrations of 5 and 10 μmol·L^−1. […] Regeneration was quantified after 25 and 33 days for all petiole cultures and roots after 33 and 42 days of culture. […]
Plants were harvested on day 45 after treatments were initiated. […] Fresh weight of individual plantlets was determined prior to air drying at 90° C. for 48 hours. […] The zinc content of the samples was determined using an AA55 Varian Atomic Absorption Spectrophotometer or by ICP Analysis. […]

Series [5] has as its system uptake of serotonin, dopamine, noradrenaline, GABA and L-glutamate. To be noted: animal cell cultures; cited from earlier work.

Marks after values point to notes of the source that are not given here.

In the case of `c1ccc(CNc2ncnc3[nH]cnc23)cc1` [BAP, benzylaminopurine], the Number of regenerants/petiole in series [1] (BAP 1 μmol·L^−1) is given as 5.4^ab; in series [1] (BAP 2.5 μmol·L^−1), 8.1^a; in series [1] (BAP 5 μmol·L^−1), 6.6^ab; in series [1] (BAP 7.5 μmol·L^−1), 5.2^ab; in series [1] (BAP 10 μmol·L^−1), 3.9^b; in series [1] (BAP 12.5 μmol·L^−1), 5.2^ab. Moreover, the Number of regenerants/petiole in series [1] (BAP 15 μmol·L^−1) is given as 5.5^ab. The “de novo shoot formation” value in series [1] (BAP as the sole growth regulating compound, all concentrations) is on record as “induced de nova shoot formation at all concentrations”. In addition, in series [1] (culture medium supplemented with BAP), the “callus formation and elongation of the petioles” value is “induce callus formation and elongation of the petioles”.

For the compound `[Li]` [lithium], the appearance of plantlets result in series [2] (all treatment levels (0–200 mg·L^−1 lithium)) was “appeared healthy”. The growth rate entry in series [2] (lithium supplementation of the culture medium, all treatment levels) was “unaffected”.

For `[Zn]` [zinc], the “muscle and protein accretion and rate of growth” value in series [3] was “more rapid muscle and protein accretion and an overall acceleration in the rate of growth”. In addition, the appearance of plants entry in series [4] (50, 100 and 150 mg·L^−1 zinc treatment groups) was “appeared normal and healthy”. For the same compound, the plantlet growth result in series [4] (higher concentrations of zinc in the medium (above 150 mg·L^−1)) is recorded as “some inhibition of growth was observed”.

In the case of hyperforin, the “uptake of serotonin, dopamine, noradrenaline, GABA and L-glutamate” value in series [5] is on record as “inhibition of uptake”.

Values taken from patent US7005298B1, “Micropropagation and production of phytopharmaceutical plants” (priority 1999, dated 2006).
